Data: patent publication US8026218B2, “Bifunctional analgesic compounds for opioid receptor agonists and neurokinin-1 receptor antagonists” (The University of Arizona, priority 2006, dated 2011)
Read-outs that look alike come from different tables or passages of the source. Peptide text beside a SMILES is read from it.

What was measured:
[1] = biological target: T1, Substance P receptors (guinea pig NK1) (Cavia porcellus, UniProt P30547); assay: Guinea pig isolated ileum (GPI) assay with substance P stimulation in presence of 1 μM naloxone
T1 construct: from tissue; host or cells: guinea pig (Hartley) ileum LMMP, 1 μM naloxone present
T1 sequence (P30547 whole entry): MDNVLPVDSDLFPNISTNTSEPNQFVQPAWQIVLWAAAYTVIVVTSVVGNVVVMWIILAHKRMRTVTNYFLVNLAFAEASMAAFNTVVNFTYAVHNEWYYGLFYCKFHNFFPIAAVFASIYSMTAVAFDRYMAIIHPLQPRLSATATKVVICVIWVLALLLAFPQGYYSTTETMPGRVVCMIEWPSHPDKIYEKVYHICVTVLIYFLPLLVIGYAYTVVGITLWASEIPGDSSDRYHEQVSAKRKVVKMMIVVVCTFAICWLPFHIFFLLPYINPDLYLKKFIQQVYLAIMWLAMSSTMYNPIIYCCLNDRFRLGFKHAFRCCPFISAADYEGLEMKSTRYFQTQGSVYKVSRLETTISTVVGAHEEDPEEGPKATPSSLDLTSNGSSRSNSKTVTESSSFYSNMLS

[2] = biological target: T2, human δ opioid receptors (hDOR) (Homo sapiens, UniProt P41143); assay: [35S]GTP-γ-S binding assay, hDOR; type: biochemical
T2 construct: expressed in transfected cells; host or cells: HN9.10 neuroblastoma cell line, pCDNA3, neomycin-selected clones
T2 sequence (P41143 whole entry): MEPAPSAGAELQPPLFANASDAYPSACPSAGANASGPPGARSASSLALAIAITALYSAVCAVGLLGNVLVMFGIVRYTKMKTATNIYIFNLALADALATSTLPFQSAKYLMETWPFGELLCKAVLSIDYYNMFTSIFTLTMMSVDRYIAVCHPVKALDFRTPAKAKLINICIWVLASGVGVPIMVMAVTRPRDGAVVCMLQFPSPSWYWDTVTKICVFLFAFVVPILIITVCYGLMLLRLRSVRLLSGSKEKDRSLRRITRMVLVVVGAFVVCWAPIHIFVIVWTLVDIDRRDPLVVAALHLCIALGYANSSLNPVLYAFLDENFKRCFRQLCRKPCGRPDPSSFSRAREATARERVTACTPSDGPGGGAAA

δ opioid receptors (MVD) = biological target: T3, δ opioid receptors (MVD) (Mus musculus, UniProt P32300); assay: Mouse isolated vas deferens (MVD) assay, opioid agonist
T3 construct: from tissue; host or cells: mouse (ICR) isolated vas deferens
T3 sequence (P32300 whole entry): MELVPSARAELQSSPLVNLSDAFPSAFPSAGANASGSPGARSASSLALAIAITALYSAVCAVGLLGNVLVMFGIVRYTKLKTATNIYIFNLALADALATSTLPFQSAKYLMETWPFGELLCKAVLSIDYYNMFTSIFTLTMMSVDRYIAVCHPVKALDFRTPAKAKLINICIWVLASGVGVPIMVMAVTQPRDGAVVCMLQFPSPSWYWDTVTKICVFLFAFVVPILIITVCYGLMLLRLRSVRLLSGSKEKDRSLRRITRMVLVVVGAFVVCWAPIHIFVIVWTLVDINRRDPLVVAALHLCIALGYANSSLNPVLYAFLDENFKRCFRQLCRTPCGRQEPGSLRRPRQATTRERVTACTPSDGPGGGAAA

μ opioid receptors (GPI) = assay: Guinea pig isolated ileum (GPI) assay, opioid agonist;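 also: inhibition of electrically evoked contractions (0.1 Hz, 0.4 msec, supramaximal voltage) in organ baths at 37 °C, contraction height 3 min after each cumulative dose versus the 1 min before dosing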
Description: Guinea Pig Isolated Ileum Assay. […] These tissues were tied to gold chains with suture silk and mounted between platinum wire electrodes in 20 mL organ baths at a tension of 1 g and bathed in oxygenated (95:5 O2:CO2) Kreb's bicarbonate buffer at 37° C. and stimulated electrically (0.1 Hz, 0.4 msec duration) at supramaximal voltage. Following an equilibration period, compounds were added cumulatively to the bath in volumes of 14-60 μL until maximum inhibition was reached. A baseline PL-017 was constructed to determine tissue integrity and allow calculation of antagonist activity before opioid analog testing began.
For opioid data analysis, percentage inhibition was calculated using the average tissue contraction height for 1 min preceding the addition of the agonist divided by the contraction height 3 min after exposure to the dose of agonist. […] IC50 and Emax estimates were determined by computerized nonlinear least-squares analysis (the pharmacological statistics package FlashCalc: Dr. Michael Ossipov, University of Arizona, Tucson, Ariz.). […] A50 values represent the mean of not less than 4 tissues. A50 and Emax estimates were determined by computerized nonlinear least-squares analysis (FlashCalc).

[3] = biological target: T2, human δ opioid receptors (hDOR); assay: Radioligand competition binding, [3H]DPDPE, hDOR membranes
[4] = biological target: T4, rat μ opioid receptors (rMOR) (Rattus norvegicus, UniProt P33535); assay: biochemical; type: biochemical; conditions: for EC50: read-out: GTP rMOR EC50
T4 construct: expressed in transfected cells; host or cells: HN9.10 neuroblastoma cell line, pCDNA3, neomycin-selected clones
T4 sequence (P33535 whole entry): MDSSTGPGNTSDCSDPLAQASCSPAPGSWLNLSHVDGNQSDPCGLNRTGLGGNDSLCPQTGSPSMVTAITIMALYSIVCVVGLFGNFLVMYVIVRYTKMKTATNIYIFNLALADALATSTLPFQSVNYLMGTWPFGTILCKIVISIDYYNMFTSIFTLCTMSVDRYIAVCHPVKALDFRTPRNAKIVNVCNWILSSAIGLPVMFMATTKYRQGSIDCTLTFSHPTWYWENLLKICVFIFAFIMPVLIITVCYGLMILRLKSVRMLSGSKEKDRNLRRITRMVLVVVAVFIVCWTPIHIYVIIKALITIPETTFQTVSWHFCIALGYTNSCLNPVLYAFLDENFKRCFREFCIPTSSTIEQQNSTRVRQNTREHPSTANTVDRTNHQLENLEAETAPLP

[5] = biological target: T5, human NK1 receptor (hNK1) (Homo sapiens, UniProt P25103); assay: Radioligand competition binding, [3H]-Substance P, hNK1
T5 construct: expressed in transfected cells
T5 sequence (P25103 whole entry): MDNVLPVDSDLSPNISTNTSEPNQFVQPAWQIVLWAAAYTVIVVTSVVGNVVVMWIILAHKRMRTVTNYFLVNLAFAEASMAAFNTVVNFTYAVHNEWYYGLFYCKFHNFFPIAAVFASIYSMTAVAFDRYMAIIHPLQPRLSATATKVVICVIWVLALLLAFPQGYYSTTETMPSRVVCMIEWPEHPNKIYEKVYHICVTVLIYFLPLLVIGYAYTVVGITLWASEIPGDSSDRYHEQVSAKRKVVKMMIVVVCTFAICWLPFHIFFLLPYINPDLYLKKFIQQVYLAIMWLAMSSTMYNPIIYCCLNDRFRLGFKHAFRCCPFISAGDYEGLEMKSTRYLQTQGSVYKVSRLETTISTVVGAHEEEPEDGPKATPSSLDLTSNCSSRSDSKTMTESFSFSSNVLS

rat NK1 (rNK1) receptor = biological target: T6, rat NK1 (rNK1) receptor (Rattus norvegicus, UniProt P14600); assay: Radioligand competition binding, [3H]substance P, rNK1/CHO membranes
T6 construct: expressed in transfected cells; host or cells: CHO (rNK-1/CHO cell line from Dr. James Krause)
T6 sequence (P14600 whole entry): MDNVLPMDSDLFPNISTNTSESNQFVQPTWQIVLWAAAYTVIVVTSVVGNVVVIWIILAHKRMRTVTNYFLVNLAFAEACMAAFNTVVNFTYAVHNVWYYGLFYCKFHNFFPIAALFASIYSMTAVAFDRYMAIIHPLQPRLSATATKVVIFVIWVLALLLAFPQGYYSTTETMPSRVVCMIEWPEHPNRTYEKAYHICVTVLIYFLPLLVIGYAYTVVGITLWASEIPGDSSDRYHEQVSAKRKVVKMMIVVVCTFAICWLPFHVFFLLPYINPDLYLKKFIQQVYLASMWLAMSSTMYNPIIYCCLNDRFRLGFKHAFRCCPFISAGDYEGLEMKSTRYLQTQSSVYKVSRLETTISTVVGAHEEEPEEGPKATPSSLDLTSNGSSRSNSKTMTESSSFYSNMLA

[6] = GPI/LMMP SP antagonist Ke (nM), Table 35
[7] = Table 32, read-out: GTP hDOR EC50
[8] = Table 32, read-out: GTP hDOR EMax
[9] = Table 35, read-out: GPI/LMMP μ-agonist IC50
[10] = Table 32, read-out: GTP rMOR EMax
[11] = Substance P antagonist, GPI, Ke, in the presence of 1 μM naloxone
[12] = Table 39, read-out: GTP binding hDOR Emax
[13] = Table 39, read-out: GTP binding rMOR Emax
[14] = Table 39, read-out: GTP binding hDOR EC50
[15] = Table 39, read-out: GPI/LMMP opioid(mu) agonist (IC50; nM)

| SMILES | EC50 [2, 7] [nM] | Emax [2, 8] [%] | IC50 (δ opioid receptors (MVD)) [nM] | IC50 (μ opioid receptors (GPI); [9]) [nM] | Ki [3] [nM] | EC50 ([4]; Table 32) [nM] | Emax [4, 10] [%] | Ki [5] [nM] | Emax [2, 12] [%] | IC50 (μ opioid receptors (GPI); [15]) [nM] | further results |
| --- | --- | --- | --- | --- | --- | --- | --- | --- | --- | --- | --- |
| C[C@H](NC(=O)[C@H](Cc1ccccc1)NC(=O)CNC(=O)[C@@H](C)NC(=O)[C@@H](N)Cc1ccc(O)cc1)C(=O)N[C@@H](Cc1c[nH]c2ccccc12)C(=O)OCc1cc(C(F)(F)F)cc(C(F)(F)F)c1 [NP31] (HELM PEPTIDE1{Y.[dA].G.F.A.W.[FC(F)(F)c1cc(CO[*:1])cc(C(F)(F)F)c1]}$$$$V2.0; N-terminus assumed) | 3.3 | 91 | 6.4 | 401 | 1.2 | 11 | 50 |  |  |  | Kb [1, 6]: 18.6 nM |
| CC[C@H](NC(=O)[C@H](Cc1ccccc1)NC(=O)CNC(=O)[C@@H](C)NC(=O)[C@@H](N)Cc1ccc(O)cc1)C(=O)N[C@@H](Cc1c[nH]c2ccccc12)C(=O)OCc1cc(C(F)(F)F)cc(C(F)(F)F)c1 [NP33] (HELM PEPTIDE1{Y.[dA].G.F.[Abu].W.[FC(F)(F)c1cc(CO[*:1])cc(C(F)(F)F)c1]}$$$$V2.0; N-terminus assumed) | 2.9 | 43 | 12.4 | 600 | 1.6 | 8.6 | 32 |  |  |  | Kb [1, 6]: 5.6 nM |
| C[C@@H](NC(=O)[C@@H](N)Cc1ccc(O)cc1)C(=O)NCC(=O)N[C@@H](Cc1ccccc1)C(=O)NCCCC(=O)N[C@@H](Cc1c[nH]c2ccccc12)C(=O)OCc1cc(C(F)(F)F)cc(C(F)(F)F)c1 [NP34] (HELM PEPTIDE1{Y.[dA].G.F.[O=C(CCCN[*:1])[*:2]].W.[FC(F)(F)c1cc(CO[*:1])cc(C(F)(F)F)c1]}$$$$V2.0; N-terminus assumed) | 16.5 | 40 | 67.9 | 200 |  | 17.4 | 27 | 0.001 |  |  | Kb [1, 6]: 0.96 nM |
| C[C@@H](NC(=O)[C@@H](N)Cc1ccc(O)cc1)C(=O)NCC(=O)N[C@@H](Cc1ccccc1)C(=O)N1CCC[C@H]1C(=O)N[C@@H](Cc1c[nH]c2ccccc12)C(=O)OCc1cc(C(F)(F)F)cc(C(F)(F)F)c1 [NP39] (HELM PEPTIDE1{Y.[dA].G.F.P.W.[FC(F)(F)c1cc(CO[*:1])cc(C(F)(F)F)c1]}$$$$V2.0; N-terminus assumed) |  |  |  | 259 |  |  |  | 0.1 |  |  |  |
| C[C@@H](NC(=O)[C@@H](N)Cc1ccc(O)cc1)C(=O)NCC(=O)N[C@@H](Cc1ccccc1)C(=O)NC(C)(C)C(=O)N[C@@H](Cc1c[nH]c2ccccc12)C(=O)OCc1cc(C(F)(F)F)cc(C(F)(F)F)c1 [NP41] (HELM PEPTIDE1{Y.[dA].G.F.[Aib].W.[FC(F)(F)c1cc(CO[*:1])cc(C(F)(F)F)c1]}$$$$V2.0; N-terminus assumed) | 37.7 | 65 | 36.2 |  |  | 105 | 36 | 0.008 |  |  | Ki (rat NK1 (rNK1) receptor; Affinity (Ki, nM) rNK1, Table 32): 3.4 nM |
| N[C@@H](Cc1ccc(O)cc1)C(=O)NCC(=O)N[C@@H](Cc1c[nH]c2ccccc12)C(=O)OCc1cc(C(F)(F)F)cc(C(F)(F)F)c1 [NP42] |  |  |  |  |  |  |  | 0.003 |  |  | GPI SP-antagonist activity @ 1 μM ([1]; Table 36, @ 1 μM): None @ 1 μM; MVD δ-agonist, % at 1 μM (δ opioid receptors (MVD); Table 36, at 1 μM): 7.5% at 1 μM; GPI μ-agonist, % at 1 μM (μ opioid receptors (GPI); Table 36, at 1 μM): 2.6% at 1 μM; Ki (rat NK1 (rNK1) receptor; Ki (nM) rNK1, Table 33): 0.36 nM |
| C[C@@H](NC(=O)[C@@H](N)Cc1ccc(O)cc1)C(=O)NCC(=O)N[C@@H](Cc1ccc(F)cc1)C(=O)OCc1cc(C(F)(F)F)cc(C(F)(F)F)c1 [NP62] |  |  | 184 |  |  |  |  | 0.2 |  |  | Kb ([1]; GPI SP-antagonist Ke (nM), Table 36): 51.8 nM; IC50 (μ opioid receptors (GPI); Table 36, read-out: GPI μ-agonist IC50): 208 nM |
| CC(C)C[C@H](NC(=O)[C@@H]1CCCN1C(=O)[C@H](Cc1ccccc1)NC(=O)CNC(=O)[C@@H](C)NC(=O)[C@@H](N)Cc1ccc(O)cc1)C(=O)N[C@@H](Cc1c[nH]c2ccccc12)C(=O)OCc1cc(C(F)(F)F)cc(C(F)(F)F)c1 [TY001, H-Tyr-DAla-Gly-Phe-Pro-Leu-Trp-O-3,5-Bzl(CF3)2] |  |  |  |  |  |  |  | 0.0023 |  |  | Kb [1, 11]: 3.6 ± 1.1 nM; IC50 [5]: 0.00501 nM; species difference between affinities at rNK1 and hNK1 ([5]; Ki rNK1 vs Ki hNK1): 700 fold; Ki (rat NK1 (rNK1) receptor; Affinity rNK1 (Ki; nM), Table 39): 1.56 nM; IC50 (rat NK1 (rNK1) receptor; LogIC50, rNK1, [3H]Substance P, Table 6, logarithm of IC50 (negative), CHO cell membranes): 5.01 nM; Ki (rat NK1 (rNK1) receptor; read-out: Ki, rNK1): 1.6 nM |
| CC(C)C[C@H](NC(=O)[C@@H]1CCCN1C(=O)[C@H](Cc1ccccc1)NC(=O)[C@H](Cc1ccccc1)NC(=O)CNC(=O)[C@@H](C)NC(=O)[C@@H](N)Cc1ccc(O)cc1)C(=O)N[C@@H](Cc1c[nH]c2ccccc12)C(=O)OCc1ccccc1 [TY014] (HELM PEPTIDE1{Y.[dA].G.F.F.P.L.W.[c1ccc(CO[*:1])cc1]}$$$$V2.0; N-terminus assumed) |  |  |  |  | 11.5 |  |  |  | 137 |  | Emax [4, 13]: 72.3% |
| CCCC[C@H](NC(=O)[C@H](Cc1ccccc1)NC(=O)CNC(=O)[C@@H](C)NC(=O)[C@@H](N)Cc1ccc(O)cc1)C(=O)N1CCC[C@H]1C(=O)N[C@@H](CC(C)C)C(=O)N[C@@H](Cc1c[nH]c2ccccc12)C(=O)OCc1cc(C(F)(F)F)cc(C(F)(F)F)c1 [TY018, H-Tyr-D-Ala-Gly-Phe-Nle-Pro-Leu-Trp-O-3,5-Bzl(CF3)2] |  |  | 16.8 ± 2.4 |  |  |  |  |  | 131 | 372 | Kb [1, 11]: 7.9 ± 1.9 nM; activation at 1 µM ([1]; read-out: Substance P GPI agonist (A50), at 1 μM, contraction relative to initial muscle contraction with KCl): 0%; LogEC50, hDOR, [35S]GTP-γ-S binding [2]: −8.40 ± 0.11; EC50 ([2]; Table 27, read-out: GTP binding hDOR EC50): 4 nM; Emax ([2]; Table 27, read-out: GTP binding hDOR Emax (%)): 131%; EC50 [2, 14]: 4 nM; Emax ([2]; net total bound/basal binding × 100, read-out: Emax, hDOR, [35S]GTP-γ-S binding): 129%; EC50 ([2]; read-out: EC50, hDOR, [35S]GTP-γ-S binding): 4 nM; IC50 (δ opioid receptors (MVD); Table 39, read-out: MVD opioid(delta) agonist (IC50; nM)): 16.8 nM; IC50 (μ opioid receptors (GPI); Table 28, read-out: GPI/LMMP Opioid(m) Agonist (IC50; nM)): 372 nM; IC50 (μ opioid receptors (GPI); electrically stimulated isolated tissue, read-out: GPI (μ), IC50): 372 ± 65 nM; LogIC50, hDOR, [3H]DPDPE ([3]; membranes from transfected HN9.10 cells): −8.42 ± 0.15; Ki (rat NK1 (rNK1) receptor; Ki, rNK1, text): 14.8 nM; IC50 (rat NK1 (rNK1) receptor; LogIC50, rNK1, Substance P radioligand, membranes from transfected CHO cells): 13.5 nM |
| CSCC[C@H](NC(=O)[C@H](Cc1ccccc1)NC(=O)CNC(=O)[C@@H](C)NC(=O)[C@@H](N)Cc1ccc(O)cc1)C(=O)N1CCC[C@H]1C(=O)N[C@@H](CC(C)C)C(=O)N[C@@H](Cc1c[nH]c2ccccc12)C(=O)N(C)Cc1ccccc1 [TY026] |  |  | 7.89 |  |  |  |  | 0.001 | 93 | 86.7 |  |
| CSCC[C@H](NC(=O)[C@H](Cc1ccccc1)NC(=O)CNC(=O)[C@@H](C)NC(=O)[C@@H](N)Cc1ccc(O)cc1)C(=O)N1CCC[C@H]1C(=O)N[C@@H](CC(C)C)C(=O)N[C@@H](Cc1c[nH]c2ccccc12)C(=O)OCc1ccccc1 [TY029] |  |  | 7.62 |  | 1.3 |  |  |  | 98 | 22.2 | EC50 [2, 14]: 3.4 nM; Emax [4, 13]: 133% |
| CSCC[C@H](NC(=O)[C@H](Cc1ccccc1)NC(=O)CNC(=O)[C@@H](C)NC(=O)[C@@H](N)Cc1ccc(O)cc1)C(=O)N1CCC[C@H]1C(=O)N[C@@H](CC(C)C)C(=O)N[C@@H](Cc1c[nH]c2ccccc12)C(=O)O [TY043] |  |  | 8.18 |  | 1.1 |  |  |  | 62 | 272 | GPI/LMMP SP antagonist (Ke; nM) ([1]; Table 39): no shift; Emax [4, 13]: 36% |
